Biological target: T1, MERTK (cMER) A708S (Homo sapiens, UniProt Q12866, A708S)
T1 construct: purchased Thermo Fisher Scientific (Life Technologies) SelectScreen
Assay: SelectScreen LanthaScreen
Type: binding
Conditions: read-out: % displacement
Method: The in vitro kinase selectivity of NU5455 was determined using the SelectScreen Broad Assay Panel (Thermo Fisher Scientific) involving activity and binding assays (Supplemental Table 1). […] Class IA PI3Ks were measured using the p85α subunit.
Kinase [ATP] % Assay Kinase [ATP] % Assay Kinase [ATP] % Assay Kinase [ATP] % Assay […]
FGR Km app 12.1 Z SRC N1 Km app 3.9 Z MERTK (cMER) A708S n/a 0.6 L RET M918T n/a -3.5 L […]
SGK (SGK1) Km app 8.5 Z MAP4K2 (GCK) Km app 2.7 Z TLK2 n/a -0.3 L STK38 (NDR) n/a -5.9 L
MERTK (cMER) Km app 8.3 Z CDK2/cyclin A Km app 2.7 Z TGFBR1 (ALK5) n/a -0.4 L MATK (HYL) Km app -6.3 Z
FYN Km app 8.3 Z EPHA1 Km app 2.7 Z CLK3 Km app -0.5 Z ABL1 E255K Km app -6.6 Z
TEC n/a 8.1 L CDK2/cyclin E1 n/a 2.7 L MAP3K14 (NIK) n/a -0.5 L STK17A (DRAK1) n/a -6.6 L
KIT V654A n/a 8.1 L TESK2 n/a 2.7 L AKT3 (PKB gamma) Km app -0.5 Z JAK2 JH1 JH2 Km app -6.7 Z
ROS1 Km app 8.0 Z SPHK1 Km app 2.7 A MAP3K9 (MLK1) Km app -0.5 Z PRKACB (PRKAC beta) n/a -6.8 L
FGFR3 K650E Km app 7.9 Z AMPK A2/B1/G1 Km app 2.6 Z IKBKB (IKK beta) Km app -0.6 Z PDGFRA (PDGFR alpha) Km app -6.8 Z
RAF1 (cRAF) Y340D Y341D 100 7.9 Z DYRK3 Km app 2.6 Z CAMK2A (CaMKII alpha) Km app -0.6 Z NEK9 Km app -7.2 Z
PI4KA (PI4K alpha) 10 7.8 A CSNK1D (CK1 delta) Km app 2.6 Z PRKCB1 (PKC beta I) Km app -0.7 Z PDK1 Km app -7.3 Z
HIPK2 Km app 7.8 Z ACVR2A n/a 2.5 L TTK n/a -0.7 L RPS6KB1 (p70S6K) Km app -7.8 Z […]

T1 sequence (Q12866 21-999 A708S): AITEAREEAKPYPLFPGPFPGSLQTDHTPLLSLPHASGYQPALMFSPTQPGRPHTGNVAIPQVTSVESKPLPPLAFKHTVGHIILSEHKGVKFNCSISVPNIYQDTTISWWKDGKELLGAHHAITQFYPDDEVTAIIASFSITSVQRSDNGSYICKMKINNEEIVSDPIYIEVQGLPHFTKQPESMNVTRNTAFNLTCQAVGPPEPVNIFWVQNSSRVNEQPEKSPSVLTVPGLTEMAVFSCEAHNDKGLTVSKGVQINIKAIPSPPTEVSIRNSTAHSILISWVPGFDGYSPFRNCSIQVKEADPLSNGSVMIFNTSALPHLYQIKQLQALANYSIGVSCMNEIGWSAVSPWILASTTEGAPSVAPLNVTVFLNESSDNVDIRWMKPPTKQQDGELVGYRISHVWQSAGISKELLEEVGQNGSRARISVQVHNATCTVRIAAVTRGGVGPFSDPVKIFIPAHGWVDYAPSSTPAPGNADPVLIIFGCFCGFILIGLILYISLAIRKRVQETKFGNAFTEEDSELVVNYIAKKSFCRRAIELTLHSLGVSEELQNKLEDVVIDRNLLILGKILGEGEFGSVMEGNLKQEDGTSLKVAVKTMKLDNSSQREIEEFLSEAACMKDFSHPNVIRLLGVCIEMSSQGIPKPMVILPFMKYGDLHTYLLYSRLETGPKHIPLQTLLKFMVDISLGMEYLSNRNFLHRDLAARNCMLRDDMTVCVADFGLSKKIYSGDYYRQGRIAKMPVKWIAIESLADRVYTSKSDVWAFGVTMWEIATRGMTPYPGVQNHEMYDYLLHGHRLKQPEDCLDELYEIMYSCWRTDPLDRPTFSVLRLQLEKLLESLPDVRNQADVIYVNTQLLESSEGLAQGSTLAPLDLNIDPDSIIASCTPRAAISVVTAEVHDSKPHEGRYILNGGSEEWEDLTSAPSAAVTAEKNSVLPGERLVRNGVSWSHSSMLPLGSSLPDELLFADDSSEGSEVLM

## CN(C(=O)CN1CCOCC1)c1ccc2sc3c(-c4cccc5c(=O)cc(N6CC7CCC(C6)O7)oc45)cccc3c2c1 [NU5455]
  inhibition at 1 µM: 0.6%
